According to PubChem BioAssay (NCI):
Several values for one entry are separate records, joined by “and”; a condition that tells them apart may be missing. Equal values may be shown once.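 Cultured in 96-well plates, cells were exposed to test compound for 48 hours across five concentrations. At the GI50, growth is halved. TGI is the concentration that stops growth completely.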

Columns and labels:
Assay in all cases: NCI tumour cell line growth inhibition, 48 h
SK-MEL-2 melanoma = test system: SK-MEL-2 melanoma
OVCAR-3 ovarian = test system: OVCAR-3 ovarian
U251 CNS = test system: U251 CNS
A498 renal = test system: A498 renal
SW-620 colon = test system: SW-620 colon
OVCAR-4 ovarian = test system: OVCAR-4 ovarian
MDA-MB-435 = test system: MDA-MB-435
K-562 leukemia = test system: K-562 leukemia
HCT-15 colon = test system: HCT-15 colon
SK-MEL-5 melanoma = test system: SK-MEL-5 melanoma

| Structure (SMILES) | TGI (SK-MEL-2 melanoma) | TGI (OVCAR-3 ovarian) | TGI (U251 CNS) | TGI (A498 renal) [µM] | TGI (SW-620 colon) [µM] | TGI (OVCAR-4 ovarian) [µM] | TGI (MDA-MB-435) | TGI (K-562 leukemia) [µM] | TGI (HCT-15 colon) [µM] | TGI (SK-MEL-5 melanoma) [µM] | GI50 (SK-MEL-2 melanoma) | GI50 (OVCAR-3 ovarian) | GI50 (U251 CNS) | GI50 (A498 renal) | GI50 (SW-620 colon) | GI50 (OVCAR-4 ovarian) | GI50 (MDA-MB-435) | GI50 (K-562 leukemia) [µM] | GI50 (HCT-15 colon) | GI50 (SK-MEL-5 melanoma) |
| --- | --- | --- | --- | --- | --- | --- | --- | --- | --- | --- | --- | --- | --- | --- | --- | --- | --- | --- | --- | --- |
| CC(=C/C=C/C=C(C)\C=C\C=C(\C)C(=O)O)/C=C/C=C(/C)C(=O)O | > 100 µM | > 100 µM | > 100 µM | > 100 | > 100 | > 100 | > 100 µM | > 100 | > 100 | > 100 | – | – | – | – | – | – | – | – | – | – |
| Cc1cc(O)cc2c1[C@]1(C)CCC3C(C)(C)CCC[C@]3(C)[C@H]1C2 (some centres undefined) | 52.7 µM | 33.5 µM | 33.5 µM | 39.1 | 33.6 | 33.8 | 33.4 µM | > 100 | 38.1 | 33.2 | 26.2 µM | 19200 nM | 19200 nM | 23.2 µM | 18500 nM | 17.5 µM | 18.8 µM | 67.4 | 19.9 µM | 19.1 µM |
| COc1cccc(/C=C/[N+](=O)[O-])c1 | 35.9 µM | 4.08 µM | 14.8 µM | 16.5 | 4.27 | 36.9 | 9.28 µM | 11.5 | 6.18 | 22.5 | 17.4 µM | 1960 nM | 4040 nM | 3.54 µM | 1970 nM | 15.5 µM | 2.69 µM | 2.92 | 2.17 µM | 10.5 µM |
| O=c1cc(N2CCN(CCCCCOc3cc(O)c4c(=O)cc(-c5ccccc5)oc4c3)CC2)c2ccccc2o1 | > 100 µM | > 100 µM | > 100 µM | > 100 | > 100 | > 100 | > 100 µM | > 100 | > 100 | > 100 | > 100 µM | > 100000 nM | > 100000 nM | > 100 µM | > 100000 nM | 62.7 µM | 47.2 µM | 15.4 | > 100 µM | 28 µM |
| Cc1nc2sc(C(=O)Nc3cccc4ccccc34)c(N)c2cc1C(O)c1ccccc1 (centres undefined) | 16.9 µM | 0.0976 µM | 13.5 µM | 0.0636 | 23.4 | 44.2 | 0.0469 µM | > 39.6 | 11.1 | 0.717 | 0.29 µM | 31.7 nM | 49.9 nM | 0.0202 µM | 37.7 nM | 0.215 µM | 0.0205 µM | 0.0442 | 0.0388 µM | 0.0993 µM |
| C#CC1(OC(C)=O)CCC2C3CC=C4C=C(OC(C)=O)CCC4(C)C3CCC21C (centres undefined) | 41.1 µM | 41.5 µM | 38.9 µM | > 100 | 49.3 | 72.2 | 45.2 µM | 83.2 | 62.5 | 34.1 | – | – | – | – | – | – | – | – | – | – |
| C=C1C(C2(C)C(OC(C)=O)CC(=O)OC(C)(COC(C)=O)C2CC(=O)OC)C(OC=O)C(OC(=O)C(O)C(C)CC)C2(C)C(c3ccoc3)CC(=O)C12O (centres undefined) | > 100 µM | > 100 µM | > 100 µM | > 29.3 | > 100 | > 100 | > 100 µM | > 31.6 | > 100 | > 100 | – | – | – | – | – | – | – | – | – | – |
| C/C(=N\Nc1cc(C)c2ccccc2n1)c1ccccn1 | 11.1 µM | 3.51 µM | 1.16 µM | 3.04 | 1.98 | 2.22 | 1.75 µM | 1.5 | 1.81 | 1.28 | 0.357 µM | < 19.4 nM | 36.8 nM | 0.284 µM | – | – | 0.21 µM | 0.0865 | < 0.0493 µM | 0.13 µM |
| O=C1c2ccccc2-c2oc(=O)c3ccccc3c21 | > 100 µM | > 100 µM | > 100 µM | > 100 | > 100 | > 100 | > 100 µM | – | > 100 | > 100 | – | – | – | – | – | – | – | – | – | – |
| CCOC(=O)NC1C2CC(=O)OC(O2)C1OC(C)=O (centres undefined) | > 100 µM | > 100 µM | > 100 µM | > 100 | > 100 | > 100 | > 100 µM | > 100 | > 100 | > 100 | – | – | – | – | – | – | > 100 µM | – | – | – |
| COc1cc2c(cc1OC)-c1ccc3cc4c(cc3c1N(CCCn1ccnc1)C2)OCO4 | 8.73 µM | 5.97 µM | 3.97 µM | 27.1 | 21 | 31.9 | 16.8 µM | – | > 100 | 10.2 | 3.02 µM | 2260 nM | 1020 nM | 7.66 µM | 1580 nM | 4.81 µM | 4.35 µM | – | 58.3 µM | 2.22 µM |
| C=C(CN1CCN(c2cccc(C(F)(F)F)n2)CC1)c1ccc(C(=O)Nc2ccccc2N)cc1 | 41.5 µM and > 58 µM | 1.12 µM and 0.982 µM | 34.4 µM and 12.8 µM | – | > 100 | > 100 | 2.26 µM and 0.767 µM | > 100 | > 100 | – | 5.65 µM and 0.851 µM | 258 nM and 261 nM | 1160 nM and 429 nM | 0.875 µM and 0.261 µM | 528 nM and 416 nM | 8.37 µM and 1.41 µM | 0.27 µM and 0.205 µM | 0.623 | 0.918 µM and 0.404 µM | 0.403 µM and 0.397 µM |
| c1ccc2c(NCCCCCCNc3c4ccccc4nc4ccccc34)c3ccccc3nc2c1 | 2.75 µM | 2.21 µM | 2.59 µM | 2.83 | 2.18 | 2.18 | 2.27 µM | > 100 | 16.7 | 2.86 | – | – | – | – | – | – | – | – | – | – |
| Cc1ccc2c(-c3ccnc(Nc4ccccc4)n3)c(-c3ccc(F)cc3)nn2n1 | 17.4 µM | > 22.8 µM | > 25 µM | 21.5 | > 25 | > 25 | > 25 µM | > 25 | > 25 | 11.4 | 7.67 µM | 4980 nM | 9800 nM | 4.78 µM | 8370 nM | 11.1 µM | 6.83 µM | 13.5 | 5.58 µM | 4.75 µM |
| CNC(=O)c1ccc(N2C(=S)N(c3ccc(C#N)c(C(F)(F)F)c3)C(=O)C2(C)C)cc1F | > 71.9 µM | > 84.5 µM | > 79.7 µM | > 71 | > 100 | > 100 | > 79.3 µM | > 100 | > 89.3 | 50 | 36.2 µM | 36500 nM | 43000 nM | > 35.3 µM | > 52600 nM | 31.8 µM | 41.9 µM | 33.9 | 33.2 µM | 20.3 µM |
